Laboratory results from US7772228B2, “Method for treatment of bacterial infections with once or twice-weekly administered rifalazil” (priority 1998, dated 2010).
Values after ≈ are worked out from the molar mass of the structure shown. Where two headings read alike, the source gives them in different places.

Tests used:
[1] = tested on: M. tuberculosis strain Erdman; settings: cited from earlier work; for reduction of bacterial load in lungs and spleens, comparison of drugs: 20 mg/kg, five times per week for four weeks
M. tuberculosis [2] = assay: Clinical trial 005, change in Log10 CFU/mL of sputum of tuberculosis patients; format: in vivo, human; settings: INH 400 mg daily, N 6
Experimental: Dosages of isoniazid and rifampin were adjusted to body weight of patients. […] When the patient's body weight was greater than 45 kg, isoniazid was administered as 600 mg/dose.
(§1) Definite diagnosis and evaluation of treatment efficacy requires direct examination of sputum for the presence of M. tuberculosis. The extent of M. tuberculosis infection is determined by number of bacteria able to form colonies and is expressed as colony forming units. When the number of colony forming units (CFU) is high, the infection is unhindered. When the CFU decreases, the number of active M. tuberculosis bacteria decreases. The CFU, typically expressed as Log10, have therefore important diagnostic and treatment evaluative value.
Dosages of isoniazid and rifampin depended on the patient's weight and were as above. The number of patients in each study group are presented as the N value.
(§2) The overall clinical studies and conditions were similar to those described in Example 1. Due to ethical considerations, there were no placebo (control) patients in this study. […] Both latest regimens were experimental and performed under IND permit from FDA.

[3] = Clinical trial 005, WBC, ANC and platelet counts in tuberculosis patients; format: in vivo, human; settings: INH daily
Experimental: as §1
The four tables 17-20 show hematology data which are separated according to Groups 1-4. The group treatment corresponds to those seen in Table 16. […] In particular, the ANC value is considered to be a very meaningful safety index as it directly relates to a patient's ability to fight infection.
as §2

[4] = in vivo; cited from earlier work
M. tuberculosis [5] = settings: BACTEC, cited from earlier work; for MIC50 50% inhibition / MIC90 90% inhibition: thirty clinical isolates
[6] = tested on: M. tuberculosis in human macrophages; settings: intracellular, cited from earlier work
[7] = tested on: extracellular M. tuberculosis; settings: cited from earlier work
M. tuberculosis [8] = settings: 22 strains, agar dilution; cited from earlier work
M. avium = settings: 18 strains, agar dilution; cited from earlier work
Helicobacter pylori = tested on: Helicobacter pylori; set-up: unit of the concentration uncertain; settings: time-kill, broth medium, 0.31 (unit uncertain); cited from earlier work

For `CC[C@@H](CO)NCCN[C@@H](CC)CO` [EMB, ethambutol], the “cell counts in lungs compared to late controls” value ([1]; four weeks treatment) is given as “reduced cell counts in lungs”.

With `NNC(=O)c1ccncc1` [INH, isoniazid] the “Change from Sputum Baseline to Day 15, Max” value (M. tuberculosis [2]) was −0.92 Log10 CFU/mL, the “Change from Sputum Baseline to Day 15, Mean (SD)” value (M. tuberculosis [2]) was −1.58 Log10 CFU/mL and the “Change from Sputum Baseline to Day 15, Med” value (M. tuberculosis [2]) was −1.63 Log10 CFU/mL. For the same molecule, the “Change from Sputum Baseline to Day 15, Min” value (M. tuberculosis [2]) was −2.23 Log10 CFU/mL, the “ANC Max” value ([3]; Day 4) was 22.51 K/CU MM and the “ANC Mean (SD)” value ([3]; Day 4) was 7.62 K/CU MM. The “ANC Med” value ([3]; Day 4) was 5.47 K/CU MM, the “ANC Min” value ([3]; Day 4) was 3.79 K/CU MM and the “Platelets Max” value ([3]; Day 4) was 431.70 K/CU MM. The “Platelets Mean (SD)” value ([3]; Day 4) was 309.38 K/CU MM, the “Platelets Med” value ([3]; Day 4) was 305.56 K/CU MM and the “Platelets Min” value ([3]; Day 4) was 153.70 K/CU MM. For the same molecule, the “WBC Max” value ([3]; Day 4) was 27.19 K/CU MM, the “WBC Mean (SD)” value ([3]; Day 4) was 10.88 K/CU MM and the “WBC Med” value ([3]; Day 4) was 8.81 K/CU MM. For the same molecule, the “WBC Min” value ([3]; Day 4) was 6.37 K/CU MM, the “ANC Max” value ([3]; Day 8) was 9.32 K/CU MM and the “ANC Mean (SD)” value ([3]; Day 8) was 5.96 K/CU MM. For the same molecule, the “ANC Med” value ([3]; Day 8) was 5.22 K/CU MM, the “ANC Min” value ([3]; Day 8) was 3.34 K/CU MM and the “Platelets Max” value ([3]; Day 8) was 396.20 K/CU MM. The “Platelets Mean (SD)” value ([3]; Day 8) was 310.13 K/CU MM, the “Platelets Med” value ([3]; Day 8) was 357.20 K/CU MM and the “Platelets Min” value ([3]; Day 8) was 185.60 K/CU MM. The “WBC Max” value ([3]; Day 8) was 12.06 K/CU MM, the “WBC Mean (SD)” value ([3]; Day 8) was 9.08 K/CU MM and the “WBC Med” value ([3]; Day 8) was 8.63 K/CU MM. For the same molecule, the “WBC Min” value ([3]; Day 8) was 6.21 K/CU MM, the “ANC Max” value ([3]; Day 11) was 6.57 K/CU MM and the “ANC Mean (SD)” value ([3]; Day 11) was 5.29 K/CU MM. For the same molecule, the “ANC Med” value ([3]; Day 11) was 5.06 K/CU MM, the “ANC Min” value ([3]; Day 11) was 4.17 K/CU MM and the “Platelets Max” value ([3]; Day 11) was 447.50 K/CU MM. The “Platelets Mean (SD)” value ([3]; Day 11) was 336.10 K/CU MM, the “Platelets Med” value ([3]; Day 11) was 354.20 K/CU MM and the “Platelets Min” value ([3]; Day 11) was 208.10 K/CU MM. For the same molecule, the “WBC Max” value ([3]; Day 11) was 10.03 K/CU MM, the “WBC Mean (SD)” value ([3]; Day 11) was 8.29 K/CU MM and the “WBC Med” value ([3]; Day 11) was 8.10 K/CU MM. For the same molecule, the “WBC Min” value ([3]; Day 11) was 7.27 K/CU MM, the “ANC Max” value ([3]; Day 15) was 8.84 K/CU MM and the “ANC Mean (SD)” value ([3]; Day 15) was 5.95 K/CU MM. The “ANC Med” value ([3]; Day 15) was 6.04 K/CU MM, the “ANC Min” value ([3]; Day 15) was 3.51 K/CU MM and the “Platelets Max” value ([3]; Day 15) was 412.70 K/CU MM. The “Platelets Mean (SD)” value ([3]; Day 15) was 298.59 K/CU MM, the “Platelets Med” value ([3]; Day 15) was 302.00 K/CU MM and the “Platelets Min” value ([3]; Day 15) was 184.60 K/CU MM. The “WBC Max” value ([3]; Day 15) was 12.40 K/CU MM, the “WBC Mean (SD)” value ([3]; Day 15) was 9.23 K/CU MM and the “WBC Med” value ([3]; Day 15) was 8.49 K/CU MM. The “WBC Min” value ([3]; Day 15) was 6.82 K/CU MM, the “ANC Max” value ([3]; Day 28) was 7.87 K/CU MM and the “ANC Mean (SD)” value ([3]; Day 28) was 5.63 K/CU MM. For the same molecule, the “ANC Med” value ([3]; Day 28) was 4.60 K/CU MM, the “ANC Min” value ([3]; Day 28) was 4.41 K/CU MM and the “Platelets Max” value ([3]; Day 28) was 398.80 K/CU MM. For the same molecule, the “Platelets Mean (SD)” value ([3]; Day 28) was 297.27 K/CU MM, the “Platelets Med” value ([3]; Day 28) was 266.00 K/CU MM and the “Platelets Min” value ([3]; Day 28) was 197.00 K/CU MM. The “WBC Max” value ([3]; Day 28) was 11.15 K/CU MM, the “WBC Mean (SD)” value ([3]; Day 28) was 8.31 K/CU MM and the “WBC Med” value ([3]; Day 28) was 7.06 K/CU MM. The “WBC Min” value ([3]; Day 28) was 6.70 K/CU MM, the “ANC Max” value ([3]; Day 42) was 7.2 K/CU MM and the “ANC Mean (SD)” value ([3]; Day 42) was 6.96 K/CU MM. The “ANC Med” value ([3]; Day 42) was 6.96 K/CU MM, the “ANC Min” value ([3]; Day 42) was 6.72 K/CU MM and the “Platelets Max” value ([3]; Day 42) was 345.00 K/CU MM. The “Platelets Mean (SD)” value ([3]; Day 42) was 297.10 K/CU MM, the “Platelets Med” value ([3]; Day 42) was 297.10 K/CU MM and the “Platelets Min” value ([3]; Day 42) was 249.20 K/CU MM. The “WBC Max” value ([3]; Day 42) was 9.23 K/CU MM, the “WBC Mean (SD)” value ([3]; Day 42) was 7.98 K/CU MM and the “WBC Med” value ([3]; Day 42) was 7.98 K/CU MM. The “WBC Min” value ([3]; Day 42) was 6.73 K/CU MM, the “cell counts in lungs compared to early controls” value ([1]; four weeks treatment) was “significantly reduced cell counts in lungs” and the “cell counts in lungs compared to late controls” value ([1]; four weeks treatment) was “reduced cell counts in lungs”.

In the case of `C[C@H]1COc2c(N3CCN(C)CC3)c(F)cc3c(=O)c(C(=O)O)cn1c23` [LEV], the “cell counts in lungs compared to late controls” value ([1]; four weeks treatment) is given as “reduced cell counts in lungs”.

In the case of `NC(=O)c1cnccn1` [PZA, pyrazinamide], the “CFUs in the spleen” value ([1]; rifalazil 20 mg/kg, PZA 150 mg/kg, four weeks) is listed as “did not significantly reduce CFUs compared to controls”.

For `CO[C@H]1/C=C/O[C@@]2(C)Oc3c(C)c(O)c4c(c3C2=O)C2=NC3(CCN(CC(C)C)CC3)NC2=C(NC(=O)/C(C)=C\C=C\[C@H](C)[C@H](O)[C@@H](C)[C@@H](O)[C@@H](C)[C@H](OC(C)=O)[C@@H]1C)C4=O` [Rifabutin, rifabutin, reference compound], the “adverse reactions at high doses” value [4] is listed as “generalized arthralgia and uveitis occurred”, the incidence of neutropenia [4] is listed as “significantly greater than in patients treated with placebo” and the skin discoloration [4] is listed as less than 1%. For the same molecule, the MIC (M. tuberculosis [5]; reference strain H37Rv) was 0.016 µg/mL (≈ 0.0189 µM), the MIC (M. tuberculosis [5]; reference strain Kurono) was 0.016 µg/mL (≈ 0.0189 µM) and the “MIC50 50% inhibition” value (M. tuberculosis [5]) was 0.063 µg/mL (≈ 0.0744 µM). The “MIC90 90% inhibition” value (M. tuberculosis [5]) was 8.0 µg/mL (≈ 9.44 µM) and the “reduction of bacterial load in lungs and spleens, comparison of drugs” value [1] was “No significant differences”.

For `CO[C@H]1/C=C/O[C@@]2(C)Oc3c(C)c(O)c4c(O)c(c(/C=N/N5CCN(C)CC5)c(O)c4c3C2=O)NC(=O)/C(C)=C\C=C\[C@H](C)[C@H](O)[C@@H](C)[C@@H](O)[C@@H](C)[C@H](OC(C)=O)[C@@H]1C` [Rifampin, rifampin, reference compound], the MBC ([6]; strain Atencio) is listed as 0.5 µg/mL (≈ 0.608 µM), the MIC ([6]; strain Atencio) is listed as 0.25 µg/mL (≈ 0.304 µM) and the MBC ([6]; strain Erdman) is listed as 0.5 µg/mL (≈ 0.608 µM). The MIC ([6]; strain Erdman) was 0.12 µg/mL (≈ 0.146 µM), the MBC ([6]; strain H37Rv) was 1.0 µg/mL (≈ 1.22 µM) and the MIC ([6]; strain H37Rv) was 0.25 µg/mL (≈ 0.304 µM). For the same molecule, the MBC ([7]; strain Atencio) was 0.25 µg/mL (≈ 0.304 µM), the MIC ([7]; strain Atencio) was 0.25 µg/mL (≈ 0.304 µM) and the MBC ([7]; strain Erdman) was 0.5 µg/mL (≈ 0.608 µM). The MIC ([7]; strain Erdman) was 0.12 µg/mL (≈ 0.146 µM), the MBC ([7]; strain H37Rv) was 0.5 µg/mL (≈ 0.608 µM) and the MIC ([7]; strain H37Rv) was 0.12 µg/mL (≈ 0.146 µM). The MIC90 (M. tuberculosis [8]) was 100 µg/mL (≈ 122 µM), the MIC90 (M. avium) was 100 µg/mL (≈ 122 µM) and the MIC (M. tuberculosis [5]; reference strain Kurono) was 0.063 µg/mL (≈ 0.0766 µM). The “MIC50 50% inhibition” value (M. tuberculosis [5]) was 4.0 µg/mL (≈ 4.86 µM), the “MIC90 90% inhibition” value (M. tuberculosis [5]) was greater than 128.0 µg/mL and the “reduction of bacterial load in lungs and spleens, comparison of drugs” value [1] was “No significant differences”.

In the case of `CC1(C)S[C@@H]2[C@H](NC(=O)[C@H](N)c3ccc(O)cc3)C(=O)N2[C@H]1C(=O)O` [amoxicillin, reference compound], the “decrease in CFU/mL after 24 hours” value (Helicobacter pylori) is given as 1 log.
